Experimental data as given in patent US20070218460A1, “Method of Estimating Toxicity of Drug” (TAKEDA PHARMACEUTICAL COMPANY LIMITED, priority 2003, published 2007).
Read-outs that look alike come from different tables or passages of the source.

Experiments:
slc2a3 = assay: Real-time quantitative PCR of PLsis marker gene expression; assay type: cell-based, human; conditions: HepG2 cells, 24 hr exposure, relative value, control group = 1.0, GAPDH internal standard, n=3
Procedure: (§1) Using RNeasy Mini Kit (QIAGEN), total RNA was purified from the cells, and cDNA was synthesized in a 100 μL system using TaqMan Reverse Transcription Reagents (PE Applied Biosystems).
(§2) As the primer for glyceraldehyde-3-phosphoric acid dehydrogenase (GAPDH) and VIC labeled probe, those attached to TaqMan GAPDH Control Reagents (PE Applied Biosystems) were used.
(§3) Using 100 μL of the reaction mixture containing 5 μL of cDNA (1×TaqMan Universal PCR Master Mix (PE Applied Biosystems), 200 nM forward primer, 200 nM reverse primer and 200 nM TaqMan probe), 40 cycles of (1 cycle=95° C., 15 sec; 60° C., 1 min) PCR were performed. PCR and fluorescence detection were performed using ABI PRISM Sequence Detector 7000 (PE Applied Biosystems). As the internal standard, GAPDH was used to amend the measurement values. For the determination of significant difference, t-test was used (n=3).
(§4) For each test compound, the expression variation rate of 12 genes each relative to the control group was determined.

mgc4171 = assay: as above; assay type: cell-based, human; conditions: HepG2 cells, 24 hr exposure, relative value, control group = 1.0, GAPDH internal standard, n=3
Procedure: as §1, §2, §3, §4

nr0b2 = assay: as above; assay type: cell-based, human; conditions: HepG2 cells, 24 hr exposure, relative value, control group = 1.0, GAPDH internal standard, n=3
Procedure: as §1, §2, §3, §4

depp = assay: as above; assay type: cell-based, human; conditions: HepG2 cells, 24 hr exposure, relative value, control group = 1.0, GAPDH internal standard, n=3
Procedure: as §1, §2, §3, §4

tagln = assay: as above; assay type: cell-based, human; conditions: HepG2 cells, 24 hr exposure, relative value, control group = 1.0, GAPDH internal standard, n=3
Procedure: as §1, §2, §3, §4

hpn = assay: as above; assay type: cell-based, human; conditions: HepG2 cells, 24 hr exposure, relative value, control group = 1.0, GAPDH internal standard, n=3
Procedure: as §1, §2, §3, §4

flj22362 = assay: as above; assay type: cell-based, human; conditions: HepG2 cells, 24 hr exposure, relative value, control group = 1.0, GAPDH internal standard, n=3
Procedure: as §1, §2, §3, §4

fabp1 = assay: as above; assay type: cell-based, human; conditions: HepG2 cells, 24 hr exposure, relative value, control group = 1.0, GAPDH internal standard, n=3
Procedure: as §1, §2, §3, §4

serpina3 = assay: as above; assay type: cell-based, human; conditions: HepG2 cells, 24 hr exposure, relative value, control group = 1.0, GAPDH internal standard, n=3
Procedure: as §1, §2, §3, §4

lss = assay: as above; assay type: cell-based, human; conditions: HepG2 cells, 24 hr exposure, relative value, control group = 1.0, GAPDH internal standard, n=3
Procedure: as §1, §2, §3, §4

kiaa1001 = assay: as above; assay type: cell-based, human; conditions: HepG2 cells, 24 hr exposure, relative value, control group = 1.0, GAPDH internal standard, n=3
Procedure: as §1, §2, §3, §4

asah1 = assay: as above; assay type: cell-based, human; conditions: HepG2 cells, 24 hr exposure, relative value, control group = 1.0, GAPDH internal standard, n=3
Procedure: as §1, §2, §3, §4

HepG2 cells [1] = assay: Highest concentration at which cells were viable after 72 hr exposure; assay type: cell-based, human
HepG2 cells [2] = assay: Electron-microscopic examination of PLsis induction potential (myelin-like structure)
Description: Using 30 kinds of the following commercially available drugs as test compounds, the level of PLsis induction potential was examined with the emergence of an intracellular myelin-like structure or a structure having a high electron density, which is an early image thereof, as an index by electronmicroscopic observation.
HepG2 cells (purchased from ATCC) were exposed to the test compound by a conventional method. HepG2 cells used were of the cell growth phase. The attached HepG2 cells were washed twice with. Dulbecco's phosphate buffered saline (calcium and magnesium salt free; PBS(−))(Dainippon Pharmaceutical Co., Ltd.) containing 0.05 w/v % EDTA, detached with a cell dissociation solution of 0.25 vol % trypsin-1 mmol/L EDTA (Gibco BRL) diluted 2-fold with PBS(−), centrifuged to remove the supernatant, and adjusted to a concentration of 2×10^5 cells/250 μL with a culture medium [Dulbecco's modified Eagle medium (DMEM)(Gibco BRL) supplemented with 50 U/mL penicillin (Gibco BRL)-[…] streptomycin (Gibco BRL) and 5 vol % FBS (Bio whittaker)]. DMSO alone or a culture medium containing the above-mentioned test compound in DMSO solution was dispensed to a well by 250 μL, the above-mentioned cell suspension (250 μL) was added, and cultured in a CO2 incubator (7100; Napco) under an atmosphere of 5% CO2—95% air at 37° C.
After culture for 72 hr, the culture medium was removed, and the cells were fixed with 1 w/v % glutaraldehyde solution. After fixing with 2 w/v % osmic acid for 2 hr by a conventional method and dehydrating with an alcohol series, the cells were embedded in a resin (Quetol 812). Ultrathin slices were prepared and, after electron staining, observed with an electron microscope (H-300; Hitachi) and photographed in 3 or more pictures per each sample (magnification ×5000). The processing after post-fixation was performed by Applied Medical Research.

O=C(CCCN1CCC(O)(c2ccc(Cl)cc2)CC1)c1ccc(F)cc1 [haloperidol]
expression variation rate slc2a3 (slc2a3): 0.44 | expression variation rate mgc4171 (mgc4171): 1.24 | expression variation rate nr0b2 (nr0b2): 1.49 | expression variation rate depp (depp): 1.38 | expression variation rate tagln (tagln): 0.52 | expression variation rate hpn (hpn): 1.43 | expression variation rate flj22362 (flj22362): 0.93 | expression variation rate fabp1 (fabp1): 1.50 | expression variation rate serpina3 (serpina3): 1.31 | expression variation rate lss (lss): 1.52 | expression variation rate kiaa1001 (kiaa1001): 1.32 | expression variation rate asah1 (asah1): 0.77 | addition concentration (highest concentration at which cells survived after 72 hr of culture) (HepG2 cells [1]): 8.3 µmol/L | frequency of appearance of myelin-like structure (HepG2 cells [2]): −

CCN(CC)CCNC(=O)c1ccc(N)cc1 [procainamide]
expression variation rate slc2a3 (slc2a3): 0.88 | expression variation rate mgc4171 (mgc4171): 1.08 | expression variation rate nr0b2 (nr0b2): 0.74 | expression variation rate depp (depp): 0.98 | expression variation rate tagln (tagln): 0.85 | expression variation rate hpn (hpn): 1.08 | expression variation rate flj22362 (flj22362): 0.73 | expression variation rate fabp1 (fabp1): 1.00 | expression variation rate serpina3 (serpina3): 0.96 | expression variation rate lss (lss): 0.90 | expression variation rate kiaa1001 (kiaa1001): 1.78 | expression variation rate asah1 (asah1): 0.86 | addition concentration (highest concentration at which cells survived after 72 hr of culture) (HepG2 cells [1]): 25 µmol/L | frequency of appearance of myelin-like structure (HepG2 cells [2]): −

CSc1ccc2c(c1)N(CCC1CCCCN1C)c1ccccc1S2 (stereo not drawn) [thioridazine]
expression variation rate slc2a3 (slc2a3): 0.38 | expression variation rate mgc4171 (mgc4171): 1.32 | expression variation rate nr0b2 (nr0b2): 0.77 | expression variation rate depp (depp): 2.02 | expression variation rate tagln (tagln): 0.46 | expression variation rate hpn (hpn): 2.85 | expression variation rate flj22362 (flj22362): 1.57 | expression variation rate fabp1 (fabp1): 5.07 | expression variation rate serpina3 (serpina3): 2.46 | expression variation rate lss (lss): 2.03 | expression variation rate kiaa1001 (kiaa1001): 5.79 | expression variation rate asah1 (asah1): 1.36 | addition concentration (highest concentration at which cells survived after 72 hr of culture) (HepG2 cells [1]): 8.3 µmol/L | frequency of appearance of myelin-like structure (HepG2 cells [2]): +

CN1CCN(C(c2ccccc2)c2ccc(Cl)cc2)CC1 (stereo not drawn) [chlorcyclizine]
expression variation rate slc2a3 (slc2a3): 0.20 | expression variation rate mgc4171 (mgc4171): 2.43 | expression variation rate nr0b2 (nr0b2): 2.46 | expression variation rate depp (depp): 3.24 | expression variation rate tagln (tagln): 0.30 | expression variation rate hpn (hpn): 2.97 | expression variation rate flj22362 (flj22362): 2.96 | expression variation rate fabp1 (fabp1): 2.62 | expression variation rate serpina3 (serpina3): 2.23 | expression variation rate lss (lss): 2.98 | expression variation rate kiaa1001 (kiaa1001): 2.47 | expression variation rate asah1 (asah1): 3.23 | addition concentration (highest concentration at which cells survived after 72 hr of culture) (HepG2 cells [1]): 25 µmol/L | frequency of appearance of myelin-like structure (HepG2 cells [2]): +++

CN(C)CCCN1c2ccccc2CCc2ccc(Cl)cc21 [clomipramine]
expression variation rate slc2a3 (slc2a3): 0.63 | expression variation rate mgc4171 (mgc4171): 1.41 | expression variation rate nr0b2 (nr0b2): 0.98 | expression variation rate depp (depp): 2.08 | expression variation rate tagln (tagln): 0.78 | expression variation rate hpn (hpn): 2.39 | expression variation rate flj22362 (flj22362): 1.46 | expression variation rate fabp1 (fabp1): 2.36 | expression variation rate serpina3 (serpina3): 2.03 | expression variation rate lss (lss): 1.52 | expression variation rate kiaa1001 (kiaa1001): 3.83 | expression variation rate asah1 (asah1): 0.82 | addition concentration (highest concentration at which cells survived after 72 hr of culture) (HepG2 cells [1]): 8.3 µmol/L | frequency of appearance of myelin-like structure (HepG2 cells [2]): +

CC(C)N(CCC(C(N)=O)(c1ccccc1)c1ccccn1)C(C)C (stereo not drawn) [disopyramide]
expression variation rate slc2a3 (slc2a3): 1.03 | expression variation rate mgc4171 (mgc4171): 1.21 | expression variation rate nr0b2 (nr0b2): 0.63 | expression variation rate depp (depp): 0.90 | expression variation rate tagln (tagln): 0.99 | expression variation rate hpn (hpn): 1.12 | expression variation rate flj22362 (flj22362): 0.98 | expression variation rate fabp1 (fabp1): 1.02 | expression variation rate serpina3 (serpina3): 0.99 | expression variation rate lss (lss): 1.14 | expression variation rate kiaa1001 (kiaa1001): 0.94 | expression variation rate asah1 (asah1): 1.85 | addition concentration (highest concentration at which cells survived after 72 hr of culture) (HepG2 cells [1]): 25 µmol/L | frequency of appearance of myelin-like structure (HepG2 cells [2]): −

CC(=O)Nc1ccc(O)cc1 [acetaminophen]
expression variation rate slc2a3 (slc2a3): 1.50 | expression variation rate mgc4171 (mgc4171): 0.75 | expression variation rate nr0b2 (nr0b2): 0.69 | expression variation rate depp (depp): 0.94 | expression variation rate tagln (tagln): 0.93 | expression variation rate hpn (hpn): 1.10 | expression variation rate flj22362 (flj22362): 1.02 | expression variation rate fabp1 (fabp1): 1.11 | expression variation rate serpina3 (serpina3): 0.99 | expression variation rate lss (lss): 0.91 | expression variation rate kiaa1001 (kiaa1001): 1.13 | expression variation rate asah1 (asah1): 1.18 | addition concentration (highest concentration at which cells survived after 72 hr of culture) (HepG2 cells [1]): 25 µmol/L

N=C(N)c1ccc(OCCCCCOc2ccc(C(=N)N)cc2)cc1 [pentamidine]
expression variation rate slc2a3 (slc2a3): 0.50 | expression variation rate mgc4171 (mgc4171): 0.73 | expression variation rate nr0b2 (nr0b2): 1.83 | expression variation rate depp (depp): 2.88 | expression variation rate tagln (tagln): 0.68 | expression variation rate hpn (hpn): 2.50 | expression variation rate flj22362 (flj22362): 2.49 | expression variation rate fabp1 (fabp1): 0.15 | expression variation rate serpina3 (serpina3): 2.12 | expression variation rate lss (lss): 0.52 | expression variation rate kiaa1001 (kiaa1001): 1.82 | expression variation rate asah1 (asah1): 0.93 | addition concentration (highest concentration at which cells survived after 72 hr of culture) (HepG2 cells [1]): 8.3 µmol/L

CN1CCN(C2=Nc3cc(Cl)ccc3Nc3ccccc32)CC1 [clozapine]
expression variation rate slc2a3 (slc2a3): 0.24 | expression variation rate mgc4171 (mgc4171): 1.88 | expression variation rate nr0b2 (nr0b2): 1.97 | expression variation rate depp (depp): 5.15 | expression variation rate tagln (tagln): 0.24 | expression variation rate hpn (hpn): 2.35 | expression variation rate flj22362 (flj22362): 1.92 | expression variation rate fabp1 (fabp1): 3.89 | expression variation rate serpina3 (serpina3): 1.96 | expression variation rate kiaa1001 (kiaa1001): 3.34 | addition concentration (highest concentration at which cells survived after 72 hr of culture) (HepG2 cells [1]): 25 µmol/L | frequency of appearance of myelin-like structure (HepG2 cells [2]): ++

C=C[C@H]1C[N@@]2CC[C@H]1C[C@@H]2[C@@H](O)c1ccnc2ccc(OC)cc12 [quinidine]
expression variation rate slc2a3 (slc2a3): 0.37 | expression variation rate tagln (tagln): 0.63 | expression variation rate fabp1 (fabp1): 1.38 | expression variation rate asah1 (asah1): 1.43 | addition concentration (highest concentration at which cells survived after 72 hr of culture) (HepG2 cells [1]): 25 µmol/L | frequency of appearance of myelin-like structure (HepG2 cells [2]): −

CCOC(=O)N1CCC(=C2c3ccc(Cl)cc3CCc3cccnc32)CC1 [loratadine]
addition concentration (highest concentration at which cells survived after 72 hr of culture) (HepG2 cells [1]): 8.3 µmol/L | frequency of appearance of myelin-like structure (HepG2 cells [2]; HepG2 cells, 72 hr culture, electron microscopy, blind test n=4, addition concentration 8.3 or 25 μmol/L): mild | frequency of appearance of myelin-like structure (HepG2 cells [2]; HepG2 cells, 72 hr, electromicroscopic test, class symbols in head of Table 2): +

CN(C)CCCN1c2ccccc2CCc2ccccc21 [imipramine]
expression variation rate slc2a3 (slc2a3): 0.15 | expression variation rate mgc4171 (mgc4171): 1.81 | expression variation rate nr0b2 (nr0b2): 3.41 | expression variation rate depp (depp): 3.36 | expression variation rate tagln (tagln): 0.15 | expression variation rate hpn (hpn): 2.32 | expression variation rate flj22362 (flj22362): 1.80 | expression variation rate fabp1 (fabp1): 2.45 | expression variation rate serpina3 (serpina3): 2.12 | expression variation rate lss (lss): 2.69 | expression variation rate kiaa1001 (kiaa1001): 2.11 | expression variation rate asah1 (asah1): 4.52 | addition concentration (highest concentration at which cells survived after 72 hr of culture) (HepG2 cells [1]): 25 µmol/L
